Experimental data: patent US10239957B2, “Peptide containing conjugates for dual molecular delivery of oligonucleotides” (Merck Sharp & Dohme Corp., priority 2013, dated 2019)
In the oligonucleotide strings, read from the 5' end, every base follows the letter of its sugar. An asterisk marks phosphorothioate; unmarked linkages are phosphodiester. Other units and linkages are bracketed, terminal groups are in braces. A string of capitals states the bases alone. Where no end group is shown, it is not given here. [ ]: non-standard residue; d: D form. {NH2C6-invAb} = cap: inverted abasic residue carrying an aminohexyl phosphate (attachment handle); [invAb] = inverted abasic unit; m = 2'-O-methyl; f = 2'-fluoro

Assays:
CTNNB1 [1] = experiment: In vivo evaluation in mice: liver mRNA knockdown measurement; conditions: for In vivo mRNA knockdown: mice
Method: (§1) Female CD-1 mice (Charles River) were injected in accordance with either a sequential dosing paradigm or a co-dosing paradigm. In the sequential dosing paradigm, the targeted siRNA (SCE) is dosed at t=0 and the targeted peptide is separately dosed up to 2 hr before the SCE (−2 hr) or up to 24 hr after the SCE (+24 hr). In the co-dosing paradigm, the SCE and peptides are co-formulated and dosed together in the same formulation as a single injection at t=0. The mice were dosed either by intravenous (i.v.) or subcutaneous (s.c.) injection of SCE and peptide. For the i.v. doses, the compounds were injected into the tail vein of the mice. For the s.c. doses, the compounds were injected in the subcutaneous space on the back of the mouse between the shoulder blades. At the indicated harvest times (measured from t=0 when the siRNA was dosed, regardless of when the peptide was dosed), the animals were sacrificed and 3 mm liver punches were collected, preserved in RNAlater (Ambion), and stored at 4° C. Separate 5 mm liver punches were collected, placed in 96-well plates, frozen on dry ice, and stored at −80° C. until use.
The 3 mm liver punches were removed from RNAlater and homogenized in Trizol (Invitrogen) using a bead mill tissue lyser (Qiagen); disruption was performed for two 5-minute cycles at 30 Hz. RNA extraction was performed using 1-bromo-2-chloropropane (Acros Organics) and total RNA was isolated from the aqueous phase using the MagMax RNA isolation method (Ambion). […] TaqMan qPCR analysis was performed with an ABI 7900 Real-Time PCR System using TaqMan Fast Advanced Master Mix (Applied Biosystems). All TaqMan probes and primers for CTNNB1 and PPIB (housekeeping gene) were purchased from Applied Biosystems as pre-validated gene expression assays. Results are calculated by the comparative Ct method, where the difference between the CTNNB1 Ct value and the PPIB Ct value (ΔCt) is calculated and then further normalized relative to the PBS control by taking a second difference (ΔΔCt), as described previously (1).

[2] = Lethality observed on in vivo dosing in mice; parameters: key: *: lethal at this dose
Method: as §1

CTNNB1 [3] = experiment: In vitro DMD assay: mRNA silencing enhancement by peptide conjugates after siRNA-IV treatment; format: cell-based; conditions: primary mouse hepatocytes, siRNA-IV 125 nM baseline
Method in brief: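 Primary mouse hepatocytes were pretreated 1 h with siRNA-IV at 125 nM, then exposed ~16 h to peptide conjugates across a dose range, washed and held 24 h more. Target mRNA by RT-qPCR, normalized to PPIB (dddCt), expressed as enhancement over siRNA-IV alone relative to untreated cells.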

[4] = siRNA metabolic stability (order stated for FIG. 6); conditions: order siRNA-I>siRNA-V>siRNA-VI
RISC = molecular target: T1, RISC (Mus musculus, UniProt Q8CJG0); experiment: Quantitation of siRNA bound to RISC (RISC loading) in liver; format: in vivo, mice; conditions: siRNA with vinyl phosphonate vs siRNA-I
T1 construct: from tissue; host or cells: liver of female CD-1 mice (5 mm liver punches)
T1 sequence (Q8CJG0 whole entry): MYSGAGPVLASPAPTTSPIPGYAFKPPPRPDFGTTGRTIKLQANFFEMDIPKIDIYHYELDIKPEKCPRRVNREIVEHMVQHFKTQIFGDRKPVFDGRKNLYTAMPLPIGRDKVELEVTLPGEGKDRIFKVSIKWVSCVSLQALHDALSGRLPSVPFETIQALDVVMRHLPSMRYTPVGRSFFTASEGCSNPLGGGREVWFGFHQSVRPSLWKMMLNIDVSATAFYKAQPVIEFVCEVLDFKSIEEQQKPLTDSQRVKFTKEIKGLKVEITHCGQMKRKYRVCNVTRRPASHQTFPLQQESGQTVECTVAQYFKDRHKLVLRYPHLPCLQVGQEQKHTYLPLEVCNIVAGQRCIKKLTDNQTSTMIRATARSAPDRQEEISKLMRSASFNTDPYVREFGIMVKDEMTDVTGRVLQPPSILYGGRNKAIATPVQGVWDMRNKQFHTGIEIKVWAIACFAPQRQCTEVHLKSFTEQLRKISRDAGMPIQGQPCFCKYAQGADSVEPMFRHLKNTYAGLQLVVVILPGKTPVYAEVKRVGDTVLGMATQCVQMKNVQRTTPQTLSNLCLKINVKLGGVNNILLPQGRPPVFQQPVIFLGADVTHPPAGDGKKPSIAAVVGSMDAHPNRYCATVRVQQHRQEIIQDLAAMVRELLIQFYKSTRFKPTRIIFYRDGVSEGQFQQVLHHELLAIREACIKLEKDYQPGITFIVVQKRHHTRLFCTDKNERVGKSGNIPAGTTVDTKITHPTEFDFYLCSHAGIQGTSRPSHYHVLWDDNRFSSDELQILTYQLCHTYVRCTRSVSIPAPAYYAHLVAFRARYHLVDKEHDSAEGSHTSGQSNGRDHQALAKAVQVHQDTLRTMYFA
Method: as §1, with “use. […]” for “use.”

[5] = TGN-L-siRNA-III 0.5 mg/kg IV, peptide 2 mg/kg IV 15 min after siRNA
[6] = TGN-L-siRNA-III 0.5 mg/kg IV, peptide 10 mg/kg IV 15 min after siRNA
[7] = TGN-L-siRNA-III 0.5 mg/kg IV, peptide 25 mg/kg IV 15 min after siRNA
[8] = TGN-L-siRNA-III 0.25 mg/kg IV, peptide 50 mg/kg IV 15 min after siRNA

TGN-S-S-SEQ ID NO: 1248 (D) (C[dF][dL][dE][dE][dL][dW][dE][dL][dL][dE][dH][dL][dL]; not fully specified (residue 1); listed as Homo sapiens)
In vivo mRNA knockdown (CTNNB1 [1]; [5]): 42%
In vivo mRNA knockdown (CTNNB1 [1]; [6]): 74%
In vivo mRNA knockdown (CTNNB1 [1]; [7]): 58%
Lethality mark at targeted peptide dose [2, 7]: 25*

TGN-S-S-SEQ ID NO: 1419 (D) (C[dF][dL][dE][dE][dL][dW]G[dL][dL][dE][dH][dL][dL]; not fully specified (residue 1); listed as Homo sapiens)
In vivo mRNA knockdown (CTNNB1 [1]; [5]): 43%
In vivo mRNA knockdown (CTNNB1 [1]; [6]): 78%
In vivo mRNA knockdown (CTNNB1 [1]; [7]): 76%
Lethality mark at targeted peptide dose [2, 7]: 25*

TGN-S-S-SEQ ID NO: 1654 (D) (CG[dL][dL][dE][dE][dI][dE][dE][dL][dL][dE][dE]G[dL][dE][dN][dL][dI][dD][dW]G[dN][dS]; not fully specified (residue 1); listed as Homo sapiens)
In vivo mRNA knockdown (CTNNB1 [1]; TGN-L-siRNA-III 0.25 mg/kg IV, peptide 2 mg/kg IV 15 min after siRNA): 51%
In vivo mRNA knockdown (CTNNB1 [1]; TGN-L-siRNA-III 0.25 mg/kg IV, peptide 10 mg/kg IV 15 min after siRNA): 72%
In vivo mRNA knockdown (CTNNB1 [1]; [8]): 65%
In vitro dddCt (vs. baseline SCE dose) (CTNNB1 [3]; Targeted peptide dose 25 nM): −0.39
In vitro dddCt (vs. baseline SCE dose) (CTNNB1 [3]; Targeted peptide dose 125 nM): −1.05
In vitro dddCt (vs. baseline SCE dose) (CTNNB1 [3]; Targeted peptide dose 3125 nM): −1.48
In vitro dddCt (vs. baseline SCE dose) (CTNNB1 [3]; Targeted peptide dose 15625 nM): −1.61
Lethality mark at targeted peptide dose [2, 8]: 50*

siRNA-I: CTNNB1 siRNA; passenger SEQ ID NO 1803, guide SEQ ID NO 1804 (sense CUGUUGGAUUGAUUCGAAAUU; guide UUUCGAAUCAAUCCAACAGUU; (1)..(1) aminohexyl phosphate inverted abasic cap; (1)..(2) 2′-O-methyl; (3)..(3) 2′-deoxy-2′-fluoro; (4)..(5) 2′-O-methyl; (6)..(8) 2′-deoxy-2′-fluoro; (9)..(10) 2′-O-methyl; (11)..(12) 2′-deoxy-2′-fluoro; (13)..(15) 2′-O-methyl; (16)..(19) 2′-deoxy-2′-fluoro; (20)..(21) 2′-O-methyl; (20)..(21) phosphorothioate internucleotide linkage; (21)..(21) inverted abasic cap; (1)..(1) 2′-O-methyl; (1)..(2) phosphorothioate internucleotide linkage; (2)..(2) 2′-deoxy-2′-fluoro; (2)..(3) phosphorothioate internucleotide linkage; (3)..(3) 2′-O-methyl; (3)..(4) phosphorothioate internucleotide linkage)
Effect of timing of peptide dose on activity, FIG. 6 (CTNNB1 [1]; peptide within 2 hr before up to 24 hr after siRNA dose): does not significantly change the activity
siRNA (metabolic) stability [4]: highly stable

siRNA-III: CTNNB1 siRNA; passenger SEQ ID NO 1803, guide SEQ ID NO 1806 (vinylPmoeT) (sense CUGUUGGAUUGAUUCGAAAUU; guide TUUCGAAUCAAUCCAACAGUU; vinylphosphonate MOE T; (1)..(1) aminohexyl phosphate inverted abasic cap; (1)..(2) 2′-O-methyl; (3)..(3) 2′-deoxy-2′-fluoro; (4)..(5) 2′-O-methyl; (6)..(8) 2′-deoxy-2′-fluoro; (9)..(10) 2′-O-methyl; (11)..(12) 2′-deoxy-2′-fluoro; (13)..(15) 2′-O-methyl; (16)..(19) 2′-deoxy-2′-fluoro; (20)..(21) 2′-O-methyl; (20)..(21) phosphorothioate internucleotide linkage; (21)..(21) inverted abasic cap; (1)..(1) terminal vinyl phosphate; (1)..(1) 2′-methoxyethoxy; (2)..(21) ribonucleotide unmodified or modified as described for this sequence; (2)..(2) 2′-deoxy-2′-fluoro; (3)..(3) 2′-O-methyl; (4)..(4) …)
Time course of RISC loading (FIG. 5): rate of RISC loading (RISC): faster RISC loading

siRNA-V: CTNNB1 siRNA; passenger SEQ ID NO 1803, guide SEQ ID NO 1808 (sense {NH2C6-invAb}-mCmUfGmUmUfGfGfAmUmUfGfAmUmUmCfGfAfAfAmU*mU[invAb]; guide mUfUmUfCmGfAmAfUmCfAmAfUmCfCmAfAmCfAmGmU*mU)
Activity, FIG. 6 (CTNNB1 [1]; longer separation times (4-24 hr post-siRNA dose)): background levels
Activity (KD), FIG. 6 (CTNNB1 [1]; peptide dose times within 2 hr (before or after) the siRNA): ~25%
siRNA (metabolic) stability [4]: moderately stable

siRNA-VI: CTNNB1 siRNA; passenger SEQ ID NO 1803, guide SEQ ID NO 1809 (sense {NH2C6-invAb}-mCmUfGmUmUfGfGfAmUmUfGfAmUmUmCfGfAfAfAmU*mU[invAb]; guide fUfUfUmCfGfAfAmUmCfAfAmUmCfCfAfAmCfAfGmU*mU)
Activity, FIG. 6 (CTNNB1 [1]; DMD with peptide, more unstable siRNA): background levels
siRNA (metabolic) stability [4]: more unstable
